Measurements reported in ChEMBL document CHEMBL2331210, “New 2-benzylsulfanyl-nicotinic acid based 1,3,4-oxadiazoles: their synthesis and biological evaluation” (2013).
Values after ≈ are worked out from the molar mass of the structure shown.

Assays:
Aspergillus clavatus = assay: Antimicrobial activity against Aspergillus clavatus MTCC 1323 assessed as growth inhibition measured after overnight incubation by broth dilution method; format: functional
[1] = test system: Mycobacterium tuberculosis; assay: Antitubercular activity against Mycobacterium tuberculosis H37Rv assessed as growth inhibition after 12 to 28 days by L.J. agar MIC method; format: functional; conditions: for MIC: Mycobacterium tuberculosis, H37Rv
Pseudomonas aeruginosa = assay: Antimicrobial activity against Pseudomonas aeruginosa MTCC 2488 assessed as growth inhibition measured after overnight incubation by broth dilution method; format: functional
Candida albicans = assay: Antimicrobial activity against Candida albicans MTCC 227 assessed as growth inhibition measured after overnight incubation by broth dilution method; format: functional
Aspergillus niger = assay: Antimicrobial activity against Aspergillus niger MTCC 282 assessed as growth inhibition measured after overnight incubation by broth dilution method; format: functional
Staphylococcus aureus = assay: Antimicrobial activity against Staphylococcus aureus MTCC 96 assessed as growth inhibition measured after overnight incubation by broth dilution method; format: functional
Escherichia coli = assay: Antimicrobial activity against Escherichia coli MTCC 443 assessed as growth inhibition measured after overnight incubation by broth dilution method; format: functional
Streptococcus pyogenes = assay: Antimicrobial activity against Streptococcus pyogenes MTCC 442 assessed as growth inhibition measured after overnight incubation by broth dilution method; format: functional
HCT-15 = assay: Antitumor activity against human HCT15 cells assessed as cell growth at 0.1 uM; format: functional; conditions: read-out: Activity
NCI/ADR-RES = assay: Antitumor activity against human NCI/ADR-RES cells assessed as cell growth at 0.1 uM; format: functional; conditions: read-out: Activity
SF-539 = assay: Antitumor activity against human SF539 cells assessed as cell growth at 0.1 uM; format: functional; conditions: read-out: Activity
MDA-MB-231 = assay: Antitumor activity against human MDA-MB-231/ATCC cells assessed as cell growth at 0.1 uM; format: functional; conditions: read-out: Activity
DU-145 = assay: Antitumor activity against human DU145 cells assessed as cell growth at 0.1 uM; format: functional; conditions: read-out: Activity
SK-MEL-5 = assay: Antitumor activity against human SK-MEL-5 cells assessed as cell growth at 0.1 uM; format: functional; conditions: read-out: Activity
SNB-75 = assay: Antitumor activity against human SNB75 cells assessed as cell growth at 0.1 uM; format: functional; conditions: read-out: Activity
TK-10 = assay: Antitumor activity against human TK10 cells assessed as cell growth at 0.1 uM; format: functional; conditions: read-out: Activity
NCI-H460 = assay: Antitumor activity against human NCI-H460 cells assessed as cell growth at 0.1 uM; format: functional; conditions: read-out: Activity
SW-620 = assay: Antitumor activity against human SW620 cells assessed as cell growth at 0.1 uM; format: functional; conditions: read-out: Activity
RXF 393 = assay: Antitumor activity against human RXF393 cells assessed as cell growth at 0.1 uM; format: functional; conditions: read-out: Activity
HCT-116 = assay: Antitumor activity against human HCT116 cells assessed as cell growth at 0.1 uM; format: functional; conditions: read-out: Activity
OVCAR-4 = assay: Antitumor activity against human OVCAR4 cells assessed as cell growth at 0.1 uM; format: functional; conditions: read-out: Activity
[2] = Antitumor activity against human EKVX cells assessed as cell growth at 0.1 uM; format: functional; conditions: read-out: Activity
HL-60 = assay: Antitumor activity against human HL60(TB) cells assessed as cell growth at 0.1 uM; format: functional; conditions: read-out: Activity
SN12C = assay: Antitumor activity against human SN12C cells assessed as cell growth at 0.1 uM; format: functional; conditions: read-out: Activity
IGROV-1 = assay: Antitumor activity against human IGROV1 cells assessed as cell growth at 0.1 uM; format: functional; conditions: read-out: Activity
[3] = Antitumor activity against human Hs 578T cells assessed as cell growth at 0.1 uM; format: functional; conditions: read-out: Activity
ACHN = assay: Antitumor activity against human ACHN cells assessed as cell growth at 0.1 uM; format: functional; conditions: read-out: Activity
PC-3 = assay: Antitumor activity against human PC3 cells assessed as cell growth at 0.1 uM; format: functional; conditions: read-out: Activity
SR = assay: Antitumor activity against human SR cells assessed as cell growth at 0.1 uM; format: functional; conditions: read-out: Activity
U-251 = assay: Antitumor activity against human U251 cells assessed as cell growth at 0.1 uM; format: functional; conditions: read-out: Activity
SNB-19 = assay: Antitumor activity against human SNB19 cells assessed as cell growth at 0.1 uM; format: functional; conditions: read-out: Activity
MDA-MB-468 = assay: Antitumor activity against human MDA-MB-468 cells assessed as cell growth at 0.1 uM; format: functional; conditions: read-out: Activity
A498 = assay: Antitumor activity against human A498 cells assessed as cell growth at 0.1 uM; format: functional; conditions: read-out: Activity
HT-29 = assay: Antitumor activity against human HT-29 cells assessed as cell growth at 0.1 uM; format: functional; conditions: read-out: Activity
K562 = assay: Antitumor activity against human K562 cells assessed as cell growth at 0.1 uM; format: functional; conditions: read-out: Activity
CCRF-CEM = assay: Antitumor activity against human CCRF-CEM cells assessed as cell growth at 0.1 uM; format: functional; conditions: read-out: Activity
SK-OV-3 = assay: Antitumor activity against human SKOV3 cells assessed as cell growth at 0.1 uM; format: functional; conditions: read-out: Activity
HOP-62 = assay: Antitumor activity against human HOP62 cells assessed as cell growth at 0.1 uM; format: functional; conditions: read-out: Activity
NCI-H226 = assay: Antitumor activity against human NCI-H226 cells assessed as cell growth at 0.1 uM; format: functional; conditions: read-out: Activity
OVCAR-5 = assay: Antitumor activity against human OVCAR5 cells assessed as cell growth at 0.1 uM; format: functional; conditions: read-out: Activity
UACC-257 = assay: Antitumor activity against human UACC257 cells assessed as cell growth at 0.1 uM; format: functional; conditions: read-out: Activity
MDA-MB-435 = assay: Antitumor activity against human MDA-MB-435 cells assessed as cell growth at 0.1 uM; format: functional; conditions: read-out: Activity
BT-549 = assay: Antitumor activity against human BT549 cells assessed as cell growth at 0.1 uM; format: functional; conditions: read-out: Activity
NCI-H522 = assay: Antitumor activity against human NCI-H522 cells assessed as cell growth at 0.1 uM; format: functional; conditions: read-out: Activity
UO-31 = assay: Antitumor activity against human UO31 cells assessed as cell growth at 0.1 uM; format: functional; conditions: read-out: Activity
T47D = assay: Antitumor activity against human T47D cells assessed as cell growth at 0.1 uM; format: functional; conditions: read-out: Activity
SK-MEL-28 = assay: Antitumor activity against human SK-MEL-28 cells assessed as cell growth at 0.1 uM; format: functional; conditions: read-out: Activity
SF-295 = assay: Antitumor activity against human SF295 cells assessed as cell growth at 0.1 uM; format: functional; conditions: read-out: Activity
OVCAR-3 = assay: Antitumor activity against human OVCAR3 cells assessed as cell growth at 0.1 uM; format: functional; conditions: read-out: Activity
SF-268 = assay: Antitumor activity against human SF268 cells assessed as cell growth at 0.1 uM; format: functional; conditions: read-out: Activity
NCI-H23 = assay: Antitumor activity against human NCI-H23 cells assessed as cell growth at 0.1 uM; format: functional; conditions: read-out: Activity
RPMI-8226 = assay: Antitumor activity against human RPMI8226 cells assessed as cell growth at 0.1 uM; format: functional; conditions: read-out: Activity
Malme-3M = assay: Antitumor activity against human MALME-3M cells assessed as cell growth at 0.1 uM; format: functional; conditions: read-out: Activity
CAKI-1 = assay: Antitumor activity against human CAKI-1 cells assessed as cell growth at 0.1 uM; format: functional; conditions: read-out: Activity
M14 = assay: Antitumor activity against human M14 cells assessed as cell growth at 0.1 uM; format: functional; conditions: read-out: Activity
SK-MEL-2 = assay: cells; conditions: Homo sapiens, SK-MEL-2, read-out: Activity
Description: Antitumor activity against human SK-MEL-2 cells assessed as cell growth at 0.1 uM

[4] = Antitumor activity against human HCC2998 cells assessed as cell growth at 0.1 uM; format: functional; conditions: HCC 2998, read-out: Activity
LOX IMVI = assay: Antitumor activity against human LOXIMVI cells assessed as cell growth at 0.1 uM; format: functional; conditions: read-out: Activity
A549 = assay: Antitumor activity against human A549/ATCC cells assessed as cell growth at 0.1 uM; format: functional; conditions: read-out: Activity
UACC-62 = assay: Antitumor activity against human UACC62 cells assessed as cell growth at 0.1 uM; format: functional; conditions: read-out: Activity
MCF7 = assay: Antitumor activity against human MCF7 cells assessed as cell growth at 0.1 uM; format: functional; conditions: read-out: Activity
OVCAR-8 = assay: Antitumor activity against human OVCAR8 cells assessed as cell growth at 0.1 uM; format: functional; conditions: read-out: Activity
MOLT-4 = assay: Antitumor activity against human MOLT4 cells assessed as cell growth at 0.1 uM; format: functional; conditions: read-out: Activity

With O=C(CCl)Nc1nc(Cl)cc(Cl)n1 the MIC (Aspergillus clavatus) was over 1000 µg/mL, the “growth inhibition (GI)” value [1] was 88% and the MIC [1] was 500 µg/mL (≈ 2080 µM). It also gave an MIC (Pseudomonas aeruginosa) of 500 µg/mL (≈ 2080 µM), an MIC (Candida albicans) of 250 µg/mL (≈ 1040 µM) and an MIC (Aspergillus niger) of over 1000 µg/mL. It also gave an MIC (Staphylococcus aureus) of 500 µg/mL (≈ 2080 µM), an MIC (Escherichia coli) of 200 µg/mL (≈ 832 µM) and an MIC (Streptococcus pyogenes) of 200 µg/mL (≈ 832 µM).
COc1cc(OC)nc(NC(=O)CSc2nnc(-c3cccnc3SCc3ccccc3)o2)n1 gave a growth at 0.1 µM (HCT-15) of 105%, an MIC (Aspergillus clavatus) of 500 µg/mL (≈ 1010 µM) and a growth at 0.1 µM (NCI/ADR-RES) of 102%. The growth at 0.1 µM (SF-539) was 94.5%, the growth at 0.1 µM (MDA-MB-231) was 108% and the “growth inhibition (GI)” value [1] was 99%. The MIC [1] was 250 µg/mL (≈ 503 µM), the growth at 0.1 µM (DU-145) was 108% and the growth at 0.1 µM (SK-MEL-5) was 105%. The growth at 0.1 µM (SNB-75) was 92.5%, the growth at 0.1 µM (TK-10) was 98.6% and the growth at 0.1 µM (NCI-H460) was 112%. The growth at 0.1 µM (SW-620) was 107%, the growth at 0.1 µM (RXF 393) was 107% and the growth at 0.1 µM (HCT-116) was 101%. It also gave a growth at 0.1 µM (OVCAR-4) of 100%, a growth at 0.1 µM [2] of 105% and a growth at 0.1 µM (HL-60) of 97.3%. For the same molecule, the growth at 0.1 µM (SN12C) was 106%, the growth at 0.1 µM (IGROV-1) was 114% and the growth at 0.1 µM [3] was 107%. The growth at 0.1 µM (ACHN) was 107%, the growth at 0.1 µM (PC-3) was 104% and the growth at 0.1 µM (SR) was 96.2%. The growth at 0.1 µM (U-251) was 106%, the growth at 0.1 µM (SNB-19) was 107% and the MIC (Pseudomonas aeruginosa) was 250 µg/mL (≈ 503 µM). It also gave an MIC (Candida albicans) of 500 µg/mL (≈ 1010 µM), a growth at 0.1 µM (MDA-MB-468) of 98.2% and a growth at 0.1 µM (A498) of 125%. It also gave a growth at 0.1 µM (HT-29) of 100%, a growth at 0.1 µM (K562) of 98.2% and a growth at 0.1 µM (CCRF-CEM) of 108%. It also gave a growth at 0.1 µM (SK-OV-3) of 103%, a growth at 0.1 µM (HOP-62) of 99.7% and a growth at 0.1 µM (NCI-H226) of 101%. It also gave a growth at 0.1 µM (OVCAR-5) of 101%, a growth at 0.1 µM (UACC-257) of 105% and a growth at 0.1 µM (MDA-MB-435) of 105%. For the same molecule, the growth at 0.1 µM (BT-549) was 99.6%, the growth at 0.1 µM (NCI-H522) was 88.2% and the growth at 0.1 µM (UO-31) was 80.6%. For the same molecule, the growth at 0.1 µM (T47D) was 89.9%, the growth at 0.1 µM (SK-MEL-28) was 114% and the growth at 0.1 µM (SF-295) was 97.1%. For the same molecule, the growth at 0.1 µM (OVCAR-3) was 102%, the MIC (Aspergillus niger) was 500 µg/mL (≈ 1010 µM) and the growth at 0.1 µM (SF-268) was 104%. The growth at 0.1 µM (NCI-H23) was 103%, the growth at 0.1 µM (RPMI-8226) was 101% and the growth at 0.1 µM (Malme-3M) was 98.2%. The MIC (Staphylococcus aureus) was 250 µg/mL (≈ 503 µM), the growth at 0.1 µM (CAKI-1) was 99.5% and the growth at 0.1 µM (M14) was 96.7%. The MIC (Escherichia coli) was 100 µg/mL (≈ 201 µM), the growth at 0.1 µM (SK-MEL-2) was 102% and the growth at 0.1 µM [4] was 109%. For the same molecule, the growth at 0.1 µM (LOX IMVI) was 97.6%, the growth at 0.1 µM (A549) was 96.5% and the MIC (Streptococcus pyogenes) was 125 µg/mL (≈ 252 µM). For the same molecule, the growth at 0.1 µM (UACC-62) was 107%, the growth at 0.1 µM (MCF7) was 95.5% and the growth at 0.1 µM (OVCAR-8) was 105%. The growth at 0.1 µM (MOLT-4) was 93.2%.
